What was measured:
USP7 = USP7 (Homo sapiens, UniProt Q93009); experiment: MALDI TOF DUB assay with diubiquitin substrate; type: biochemical; conditions: diubiquitin as substrate, same assay as USP10
Experimental: Thirty-one human DUBs were freshly diluted in the reaction buffer (40 mM Tris-HCl, pH 7.6, 5 mM DTT, 0.005% BSA) at different concentrations (see Table 10). […] 0.48 μl of di-ubiquitin topoisomers were added to the reaction mixture to initiate the reaction. The reaction was sealed and incubated for 30 min at room temperature and stopped by adding TFA to a final concentration of 2% (v/v).
Mass spectrometry data was acquired on an UltrafleXtreme MALDI-TOF mass spectrometer (Bruker Daltonics) with Compass 1.3 control and processing software. The sample carrier was taught before each analysis to optimize and centre laser shooting. […] Samples were analysed in automatic mode (AutoXecute, Bruker Daltonics). […] An amount of 3,500 shots were summed up in “random walk” and with “large” smartbeam laser focus. Spectra were automatically calibrated on the ^15N-Ub m/z and processed using smoothing (Savitzky-Golay algorithm) and baseline subtraction (‘TopHat’) for reproducible peak annotation on non-resolved isotope distributions: one cycle, 0.2 m/z for the width. For area calculation, the complete isotopic distribution was taken into account. An in-house made script was used to report—^15N and mono-ubiquitin areas; plotting of graphs, calculation of standard deviation and coefficient of variation (%) were processed in Microsoft Excel.

Ba/F3-FLT3-ITD cells = experiment: Proliferation of Ba/F3-FLT3-ITD cells; type: cell-based, murine
Excerpt: Nomo-1, P31-FUJ, and NB4 were obtained from Dr. Gary Gilliland. MV4, 11 cells were obtained from Dr. Anthony Letai. Hel, K562, THP, U937, TF-1 and K052 cells were purchased from the American Type Culture Collection (ATCC) (Manassas, Va., USA). […] Cell lines were submitted for cell line authentication and were authenticated within 6 months of manuscript preparation through cell line short tandem repeat (STR) profiling (DDC Medical, Fairfield, Ohio and Molecular Diagnostics Laboratory, Dana Farber Cancer Institute). […] PBMCs were generously provided by Dr. Steven Treon and Dr. Guang Yang.
The CellTiter-Glo® assay (Promega, Madison, Wis.) was used for proliferation studies and carried out according to manufacturer instructions. Cell viability is reported as percentage of control (untreated) cells, and error bars represent the standard error of the mean for each data point.

MOLM14 cells = experiment: Immunoblot of FLT3, Beclin-1, AKT, ERK1/ERK2 in MOLM14 cells; type: cell-based, human
Excerpt: (§1) The following antibodies were purchased from Cell Signaling Technology (Danvers, Mass.): total AKT (rabbit, #9272) and total p44/42 MAPK (Erk1/2) (3A7) (mouse, #9107) were used at 1:1000 dilution. Anti-GAPDH (D16H-11) XP (R) (rabbit mAb, #5174) was used at 1:1000 dilution. Beclin-1 (rabbit, #3738) was used at 1:1000. USP10 (D7A5) (rabbit, #8501) was used at 1:1000 dilution. P53 (rabbit, #9282) was used at 1:1000 dilution. β-tubulin (rabbit, #2146s) was used 1:1000.
FLT3/Flk-2 (C-20) (sc-479) and Ub (P4D1) (mouse, sc-8017) were purchased from Santa Cruz Biotechnology, Inc. (Dallas, Tex.) and used at 1:1000 dilution for immunoblotting. Anti-pTyr (mouse, clone 4G10) was purchased from Upstate Biotechnology (Lake Placid, N.Y.) and was used at 1:1000 dilution. Anti-HAUSP/USP7 antibody (rabbit, ab4080) and anti-ubiquitin antibody (rabbit, ab7780) were purchased from Abcam (Cambridge, Mass.) and used at 1:1000 dilution.
(§2) Protein lysate preparation, immunoblotting, and immunoprecipitation were carried out as previously described in Weisberg et al. (2002) Cancer Cell 1:433-443.

USP10 = USP10 target engagement in cells, labeling with HA-Ub-VS; type: cell-based; conditions: lysates from live treated cells
Experimental: Cells were harvested, washed with PBS, and lysed in 1% NP-40, 10% glycerol, 2% sodium orthovanadate, and HALT protease inhibitor cocktail (ThermoFisher). Lysate was diluted to 50 ug in 30 uL lysis buffer with 1% DTT and incubated on ice for 15 minutes. 0.25 ug HA-Ub-VS was added, and the sample was gently rocked at room temperature for 30 minutes, then denatured with LDS sample buffer.

MOLM13 and MOLM14 cells = experiment: p53 levels in AML cell lines (immunoblot); type: cell-based, human
Excerpt: as §1, §2

USP7, sequence (Q93009 whole entry): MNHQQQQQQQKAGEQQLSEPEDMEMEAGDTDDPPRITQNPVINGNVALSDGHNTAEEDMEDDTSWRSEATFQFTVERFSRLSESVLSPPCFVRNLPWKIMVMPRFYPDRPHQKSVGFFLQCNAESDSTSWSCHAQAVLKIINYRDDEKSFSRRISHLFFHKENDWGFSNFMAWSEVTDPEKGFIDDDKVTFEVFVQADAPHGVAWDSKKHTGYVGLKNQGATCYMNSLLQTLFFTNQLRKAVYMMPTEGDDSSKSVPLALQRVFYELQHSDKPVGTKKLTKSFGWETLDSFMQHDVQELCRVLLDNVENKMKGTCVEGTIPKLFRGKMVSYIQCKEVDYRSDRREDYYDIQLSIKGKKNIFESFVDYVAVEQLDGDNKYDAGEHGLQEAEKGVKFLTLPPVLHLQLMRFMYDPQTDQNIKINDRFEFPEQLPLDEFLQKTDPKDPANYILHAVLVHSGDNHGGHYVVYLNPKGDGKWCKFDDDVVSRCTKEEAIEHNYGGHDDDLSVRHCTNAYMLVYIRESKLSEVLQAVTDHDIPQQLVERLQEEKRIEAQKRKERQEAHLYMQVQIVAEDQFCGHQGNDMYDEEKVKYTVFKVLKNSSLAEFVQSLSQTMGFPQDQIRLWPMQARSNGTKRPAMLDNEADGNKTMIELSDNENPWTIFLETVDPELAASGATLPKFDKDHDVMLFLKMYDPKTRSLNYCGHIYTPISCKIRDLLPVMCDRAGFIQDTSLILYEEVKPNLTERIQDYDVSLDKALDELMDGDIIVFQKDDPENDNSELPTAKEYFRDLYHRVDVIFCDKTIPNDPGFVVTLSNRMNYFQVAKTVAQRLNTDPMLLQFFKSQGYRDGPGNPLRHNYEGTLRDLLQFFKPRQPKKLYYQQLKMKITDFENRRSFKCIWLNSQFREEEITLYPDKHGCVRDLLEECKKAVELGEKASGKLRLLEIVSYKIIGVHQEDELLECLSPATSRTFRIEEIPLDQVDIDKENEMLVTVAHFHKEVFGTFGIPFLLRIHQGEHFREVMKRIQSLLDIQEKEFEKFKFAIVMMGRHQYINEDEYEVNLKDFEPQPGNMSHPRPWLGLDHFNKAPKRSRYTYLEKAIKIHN

CN(CCCNC(=O)c1ccc2nc3c(c(Cl)c2c1)CCCC3)Cc1ccccc1 [HBX19818, reference compound]
IC50 (USP7): 57 µM | Proliferation EC50 (Ba/F3-FLT3-ITD cells): single digit micromolar range | Protein levels of Beclin-1 and FLT3 (MOLM14 cells; 20 μM): strongly decreased | Expression of AKT and ERK1/ERK2 downstream of FLT3 (MOLM14 cells; approximately 23 hours of treatment): unchanged | Inhibitor concentration blocking USP10 labeling by HA-Ub-VS (USP10): low micromolar range | p53 levels (MOLM13 and MOLM14 cells): did not result in a decrease of p53 levels

From patent US11136409B2, “Compositions and methods for identification, assessment, prevention, and treatment of AML using USP10 biomarkers and modulators” (Dana-Farber Cancer Institute, Inc., priority 2016, dated 2021)
